Laboratory results from patent US8722937B2 (priority 2006, dated 2014).
≈ marks a conversion by molar mass, not a printed value. Read-outs that look alike come from different tables or passages of the source. Marks after values point to notes of the source that are not given here.

Experiments:
[1] = system: B. anthracis; details: cited from earlier work
[2] = biological target: T1, FabH derived from E. coli (ecFabH) (Escherichia coli, UniProt P0A6R0); experiment: FabH enzyme assay (coupled trichloroacetic acid precipitation assay), ecFabH; format: biochemical; details: for IC50: 15 min preincubation at 23° C., duplicate assays, read-out: IC50 against ecFabH; for inhibition at 5 µM: 5 μM of test compound, read-out: Percent inhibition of FabH derived from E. coli, ecFabH (%)
T1 construct: polyhistidine (N); made in house; host or cells: E. coli
T1 sequence (P0A6R0 1-317): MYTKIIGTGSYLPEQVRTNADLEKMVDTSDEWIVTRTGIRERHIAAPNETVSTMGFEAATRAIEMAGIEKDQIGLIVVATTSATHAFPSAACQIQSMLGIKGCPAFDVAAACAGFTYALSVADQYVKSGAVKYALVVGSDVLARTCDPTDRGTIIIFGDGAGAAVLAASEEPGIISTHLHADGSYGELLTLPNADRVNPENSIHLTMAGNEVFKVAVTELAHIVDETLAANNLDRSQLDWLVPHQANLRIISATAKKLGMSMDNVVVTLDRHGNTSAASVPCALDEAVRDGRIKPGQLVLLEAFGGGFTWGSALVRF

[3] = biological target: FabH derived from M. tuberculosis (mtFabH) (Mycobacterium tuberculosis, UniProt P9WNG3); details: for IC50: read-out: IC50 against mtFabH
FabH derived from M. tuberculosis (mtFabH), sequence (P9WNG3 whole entry): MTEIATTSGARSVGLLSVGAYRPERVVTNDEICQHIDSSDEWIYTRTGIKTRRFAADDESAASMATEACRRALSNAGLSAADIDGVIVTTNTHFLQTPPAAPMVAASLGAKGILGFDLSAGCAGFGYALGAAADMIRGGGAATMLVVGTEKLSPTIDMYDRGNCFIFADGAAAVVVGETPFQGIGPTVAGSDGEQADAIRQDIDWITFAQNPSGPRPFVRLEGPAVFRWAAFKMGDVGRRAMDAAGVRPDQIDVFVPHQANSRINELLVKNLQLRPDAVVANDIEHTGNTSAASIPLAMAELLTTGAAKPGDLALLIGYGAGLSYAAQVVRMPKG

[4] = system: S. aureus (ATCC 25923); details: MSSA ATCC 25923; data taken from ref. 6; cited from earlier work
[5] = system: methicillin-resistant S. aureus (MRSA); details: MRSA ATCC 43300; data taken from ref. 6; cited from earlier work
[6] = system: S. aureus (ATCC 25923); details: MSSA ATCC 25923; data from ref. 6 (PenG, 2g) or ref. 52 (vancomycin); cited from earlier work
[7] = system: MRSA (ATCC 43300); details: cited from earlier work
[8] = system: S. aureus (ATCC 25923); experiment: microbe, parasite or virus in culture; format: cell-based, Staphylococcus aureus; details: for Zones of growth inhibition, S. aureus / zone of inhibition at 20 µg/disc: 24 h, 37° C.; for zone of inhibition at 20 µg/disc: Staphylococcus aureus, ATCC25923
[9] = system: methicillin-resistant S. aureus (MRSA); experiment: microbe, parasite or virus in culture; format: cell-based, Staphylococcus aureus; details: for Zones of growth inhibition, MRSA / zone of inhibition at 20 µg/disc: 24 h, 37° C.; for zone of inhibition at 20 µg/disc: Staphylococcus aureus, MRSA, read-out: Average zones of growth inhibition of MRSA (USF-652-659, 919-920)
[10] = system: S. aureus (ATCC 25923); experiment: Agar dilution minimum inhibitory concentration (MIC), S. aureus; format: cell-based, Staphylococcus aureus; details: for MIC: Staphylococcus aureus
[11] = system: MRSA (ATCC 43300); experiment: Minimum inhibitory concentration (MIC), MRSA; format: cell-based, Staphylococcus aureus
[12] = system: M. tuberculosis; details: reported by Jones et al.; cited from earlier work
[13] = system: B. anthracis (USF 848); experiment: microbe, parasite or virus in culture; format: cell-based, Bacillus anthracis; details: Bacillus anthracis, 24 h, 37° C.
[14] = system: B. anthracis (USF 848); experiment: microbe, parasite or virus in culture; format: cell-based, Bacillus anthracis; details: Bacillus anthracis, read-out: Minimum inhibitory concentration (MIC) against B. anthracis (USF 848)
[15] = system: E. coli (K12; ATCC 23590); experiment: Kirby-Bauer zones of inhibition, E. coli; format: cell-based, Escherichia coli; details: K12 strain, ATCC 23590; for Zone of Inhibition (mm), E. coli, zones of partial inhibition: number in parentheses; for Zone of Inhibition (mm), E. coli: number outside parentheses
[16] = system: E. coli (K12; ATCC 23590); experiment: Minimum inhibitory concentration (MIC), E. coli; format: cell-based; details: Escherichia coli, ATCC23590, read-out: MIC (μg/mL) against E. coli
[17] = MRSA ATCC 43300, data taken from ref. 6
[18] = read-out: Zones of growth inhibition of S. aureus (ATCC 25923)
[19] = read-out: Zones of growth inhibition of S. aureus (ATCC 25923), areas of partial inhibition
[20] = ATCC25923, serial dilution in 24-well plate, NCCLS, read-out: Minimum inhibitory concentration (MIC) against S. aureus (ATCC 25923)
[21] = read-out: Zones of growth inhibition of B. anthracis (USF 848)
[22] = read-out: Zones of growth inhibition of B. anthracis (USF 848), areas of partial growth inhibition
[23] = ATCC 25923 / MSSA, read-out: MIC (MSSA)

Compound	inhibition at 5 µM [2] [%]	zone of inhibition at 20 µg/disc [8, 18] [mm]	zone of inhibition at 20 µg/disc [8, 19] [mm]	zone of inhibition at 20 µg/disc [9] [mm]	MIC [10, 20] [µg/mL]	zone of inhibition at 20 µg/disc [13, 21] [mm]	MIC [14] [µg/mL]	Zone of Inhibition (mm), E. coli, zones of partial inhibition [15]	MIC [16] [µg/mL]	also measured
O=C(O)c1cn(C2CC2)c2cc(N3CCNCC3)c(F)cc2c1=O [Ciprofloxacin]	–	–	–	–	–	–	–	–	–	reported value for Ciprofloxacin (for 50% growth inhibition) [1]: 0.094
CCC(C)SN1C(=O)C(OC)C1c1ccccc1Cl (centres unmarked) [Compound 2g]	–	–	–	–	–	–	–	–	–	Percent inhibition of ecFabH ([2]; 1 μM of test compound): 30%; Percent inhibition of mtFabH ([3]; 10 µM): 4%; Zone (MSSA) [4]: 32^c mm; Zone (MRSA) [5]: 34 mm; MIC (MSSA) [6]: 0.25 µg/mL (≈ 0.834 µM); MIC (MRSA) [7, 17]: 0.25 µg/mL (≈ 0.834 µM)
CSN1C(=O)OCC1c1ccccc1 (centres unmarked) [Compound 13, reference compound]	–	–	–	–	–	–	–	–	–	Zone (MSSA) [8]: 29 mm; Zone (MRSA) [9]: 28 mm; MIC (MSSA) ([10]; MSSA ATCC 25923): 4 µg/mL (≈ 19.1 µM); MIC (MRSA) [11]: 8 µg/mL (≈ 38.2 µM)
CSSCCNC(=O)CCNC(=O)[C@H](O)C(C)(C)COP(=O)(O)OP(=O)(O)OC[C@H]1O[C@@H](n2cnc3c(N)ncnc32)[C@H](O)[C@@H]1OP(=O)(O)O [Compound 25a]	–	–	–	–	–	–	–	–	–	IC50 [2]: 57.1 ± 4.48 µM; Zones of growth inhibition, S. aureus [8]: 0 mm; Zones of growth inhibition, MRSA [9]: 0 mm; IC50 [3]: > 300 µM
CCC(C)SSCCNC(=O)CCNC(=O)[C@H](O)C(C)(C)COP(=O)(O)OP(=O)(O)OC[C@H]1O[C@@H](n2cnc3c(N)ncnc32)[C@H](O)[C@@H]1OP(=O)(O)O (some centres unmarked) [Compound 25c]	–	–	–	–	–	–	–	–	–	IC50 [2]: > 300 µM; Zones of growth inhibition, S. aureus [8]: 0 mm; Zones of growth inhibition, MRSA [9]: 0 mm; IC50 [3]: > 300 µM
CCCCSSCCNC(=O)CCNC(=O)[C@H](O)C(C)(C)COP(=O)(O)OP(=O)(O)OC[C@H]1O[C@@H](n2cnc3c(N)ncnc32)[C@H](O)[C@@H]1OP(=O)(O)O [Compound 25d]	–	–	–	–	–	–	–	–	–	IC50 [2]: > 300 µM; IC50 [3]: > 300 µM
CCCCCCCCSSCCNC(=O)CCNC(=O)[C@H](O)C(C)(C)COP(=O)(O)OP(=O)(O)OC[C@H]1O[C@@H](n2cnc3c(N)ncnc32)[C@H](O)[C@@H]1OP(=O)(O)O [Compound 25e]	–	–	–	–	–	–	–	–	–	IC50 [2]: > 300 µM; IC50 [3]: 23.2 ± 4.6 µM
CCCCCCCCCCSSCCNC(=O)CCNC(=O)[C@H](O)C(C)(C)COP(=O)(O)OP(=O)(O)OC[C@H]1O[C@@H](n2cnc3c(N)ncnc32)[C@H](O)[C@@H]1OP(=O)(O)O [Compound 25f]	–	–	–	–	–	–	–	–	–	IC50 [2]: > 300 µM; IC50 [3]: 2.6 ± 1.6 µM
CC(C)CCCCCCCS(=O)(=O)CC(N)=O [Compound 30]	–	–	–	–	–	–	–	–	–	activity against M. tuberculosis, in words [12]: good activity
CSSc1ccc([N+](=O)[O-])cc1 [Compound 38a, p-Nitrophenyl Methyl Disulfide]	94	30	35	23	16 (≈ 79.5 µM)	47	0.25 (≈ 1.24 µM)	24 mm	16 (≈ 79.5 µM)	zone of inhibition at 20 µg/disc [13, 22]: 54 mm; Zone of Inhibition (mm), E. coli [15]: 17 mm; melting point: 29 to 32 °C
CCSSc1ccc([N+](=O)[O-])cc1 [Compound 38b, Ethyl p-nitrophenyl Disulfide]	98	47	54	38	32 (≈ 149 µM)	56	0.25 (≈ 1.16 µM)	23 mm	16 (≈ 74.3 µM)	zone of inhibition at 20 µg/disc [13, 22]: 67 mm; Zone of Inhibition (mm), E. coli [15]: 15 mm
CC(C)SSc1ccc([N+](=O)[O-])cc1 [Compound 38c, Isopropyl p-nitrophenyl disulfide]	98.5	68	85	75	0.4 (≈ 1.74 µM)	71	< 0.125	(11) mm	96 (≈ 419 µM)	Zone (MSSA) [8]: 47 mm; Zone (MRSA) [9]: 70 mm; MIC [10, 23]: 0.8 µg/mL (≈ 3.49 µM)
CCC(C)SSc1ccc([N+](=O)[O-])cc1 (centres unmarked) [Compound 38d, Sec-Butyl p-nitrophenyl Disulfide]	96	47	68	54	0.8 (≈ 3.29 µM)	56	< 0.125	(10) mm	128 (≈ 526 µM)	Zone (MSSA) [8]: 67 mm; Zone (MRSA) [9]: 54 mm; MIC [10, 23]: 0.4 µg/mL (≈ 1.64 µM); zone of inhibition at 20 µg/disc [13, 22]: 62 mm
CCCSSc1ccc([N+](=O)[O-])cc1 [Compound 38e, p-Nitrophenyl n-propyl Disulfide]	91	36	43	38	24 (≈ 105 µM)	49	1 (≈ 4.36 µM)	21 mm	64 (≈ 279 µM)	zone of inhibition at 20 µg/disc [13, 22]: 57 mm; Zone of Inhibition (mm), E. coli [15]: 16 mm
CCCCSSc1ccc([N+](=O)[O-])cc1 [Compound 38f, n-Butyl p-nitrophenyl Disulfide]	93	41	53	28	32 (≈ 131 µM)	44	1 (≈ 4.11 µM)	22 mm	96 (≈ 394 µM)	zone of inhibition at 20 µg/disc [13, 22]: 52 mm; Zone of Inhibition (mm), E. coli [15]: 15 mm
CC1(C)S[C@@H]2[C@H](NC(=O)Cc3ccccc3)C(=O)N2[C@H]1C(=O)O [PenG., penicillin G, reference compound]	–	–	–	–	–	–	–	–	–	Zone (MSSA) [4]: 33 mm; Zone (MRSA) [5]: 14 mm; MIC (MSSA) [6]: 0.03 µg/mL (≈ 0.0897 µM); MIC (MRSA) [7, 17]: 64 µg/mL (≈ 191 µM)
CN[C@H](CC(C)C)C(=O)N[C@H]1C(=O)N[C@@H](CC(N)=O)C(=O)N[C@H]2C(=O)N[C@H]3C(=O)N[C@H](C(=O)N[C@H](C(=O)O)c4cc(O)cc(O)c4-c4cc3ccc4O)[C@H](O)c3ccc(c(Cl)c3)Oc3cc2cc(c3O[C@@H]2O[C@H](CO)[C@@H](O)[C@H](O)[C@H]2O[C@H]2C[C@](C)(N)[C@H](O)[C@H](C)O2)Oc2ccc(cc2Cl)[C@H]1O [Vanc., Vancomycin, reference compound]	–	–	–	–	–	–	–	–	–	Zone (MSSA) [8]: 27 mm; Zone (MRSA) [9]: 22 mm; MIC (MSSA) [6]: 0.78^d μg/mL; MIC (MRSA) ([7]; MRSA 67, as reported by ref. 52): 0.39^d μg/mL
